IC50 data for 55 compounds are collected here from US9963462B2 (priority 2015, dated 2018).

The target of experiment [1] is SNAP-hSPR (sepiapterin reductase, SPR) (Homo sapiens, UniProt P35270). Nature of the experiment: biochemical. Format: binding. Conditions: terbium labelled SNAP-hSPR / SSZ labelled SNAP-EGFP; read-out: hTR-FRET IC50.
The test system of experiment [2] is BH4 levels in SK-N-BE (2) cells. Kind of experiment: SKN-N-BE (2) cellular assay, BH4 levels by LC-MS. Format: cell-based. The settings on record: Homo sapiens, SKNBE2, read-out: SK-N-BE(2) IC50, SK-N-BE (2) cells, BH4 levels by LC-MS.

Chain of SNAP-hSPR (sepiapterin reductase, SPR) (P35270 whole entry): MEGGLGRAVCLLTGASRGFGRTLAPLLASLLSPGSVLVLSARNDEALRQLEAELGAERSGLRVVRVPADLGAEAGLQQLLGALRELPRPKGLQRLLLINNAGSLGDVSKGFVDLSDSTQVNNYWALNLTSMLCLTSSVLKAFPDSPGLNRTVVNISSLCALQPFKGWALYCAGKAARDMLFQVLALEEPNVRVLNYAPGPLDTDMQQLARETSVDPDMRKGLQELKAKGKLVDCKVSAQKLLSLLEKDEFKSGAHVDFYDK

As for `O=C(c1cnn(-c2nc3ccsc3c(=O)[nH]2)c1)N1CCC(c2nc3ccccc3s2)CC1` [Q-0528], the values for the half-maximal inhibitory concentration (IC50) in experiment [1] and in experiment [2] were 70 nM and 800 nM, respectively.

`O=c1[nH]c(-n2cc(OC3CCCC3)cn2)nc2c1CCC2` [Q-0529]: the IC50 is 10 nM in experiment [1] and 100 nM in experiment [2].

For `O=C(c1cnc(-c2nc3ccsc3c(=O)[nH]2)s1)N1CCC(C(F)(F)F)CC1` [Q-0530], the results for the IC50 in experiment [1] and in experiment [2] were 30 nM and 1800 nM, respectively.

Consider `Cc1c(C(=O)N2CCC(C(C)(C)C#N)CC2)cnn1-c1nc2ccsc2c(=O)[nH]1` [Q-0531], for which the results for the concentration for half-maximal inhibition (IC50) in experiment [1] and in experiment [2] were 4 nM and 62 nM, respectively.

Take `Cc1c(C(=O)Nc2ccccc2N2CCOCC2)cnn1-c1nc2c(c(=O)[nH]1)CCC2` [Q-0532]: the figures for the IC50 in experiment [1] and in experiment [2] were 20 nM and 44 nM, respectively.

In the case of `N#CC1(c2ccccc2)CCN(C(=O)c2cnn(-c3nn4cccc4c(=O)[nH]3)c2)CC1` [Q-0534], the IC50 turned out to be 3 nM in experiment [1] and 100 nM in experiment [2].

`O=C(c1cnn(-c2nn3cccc3c(=O)[nH]2)c1)N1CCC(S(=O)(=O)c2ccccc2)CC1` [Q-0535]: the IC50 in experiment [1] worked out at 4 nM; in experiment [2], 400 nM.

Turning to `O=C(c1cnn(-c2nn3cccc3c(=O)[nH]2)c1)N1CCC(c2c[nH]c3ccccc23)CC1` [Q-0536], the IC50 turned out to be 7 nM in experiment [1] and 59 nM in experiment [2].

Regarding `O=C(c1cnn(-c2nn3cccc3c(=O)[nH]2)c1)N1CCC(c2nc3ccccc3s2)CC1` [Q-0537], the IC50 came out at 40 nM in experiment [1] and 200 nM in experiment [2].

As for `Cc1c(C(=O)N2CCC(C(F)(F)F)CC2)cnn1-c1nn2cc(F)cc2c(=O)[nH]1` [Q-0543], the concentration for half-maximal inhibition (IC50) in experiment [1] came to 3 nM; in experiment [2], 400 nM.

On to `Cc1c(C(=O)N2CCN(c3ccccc3)CC2)cnn1-c1nc2c(c(=O)[nH]1)CCC2` [Q-0545], for which the values for the IC50 in experiment [1] and in experiment [2] were 2 nM and 41 nM, respectively.

Turning to `O=C(c1cnn(-c2nc3c(c(=O)[nH]2)CCC3)c1C1CC1)N1CCC(c2nc3ccccc3s2)CC1` [Q-0546], the values for the IC50 in experiment [1] and in experiment [2] were 9 nM and 84 nM, respectively.

In the case of `O=C(O)c1ccnc(-c2nc3ccsc3c(=O)[nH]2)c1` [Q-0547], the IC50 was determined as 2300 nM in experiment [1] and 10000 nM in experiment [2].

For the compound `O=C(c1ccnc(-c2nc3ccsc3c(=O)[nH]2)c1)N1CCC(c2nc3ccccc3s2)CC1` [Q-0548], the IC50 turned out to be 20 nM in experiment [1] and 2100 nM in experiment [2].

In the case of `Cc1c(C(=O)N2CC[C@@H](N(C)C(=O)OC(C)(C)C)C2)cnn1-c1nc2ccsc2c(=O)[nH]1` [Q-0549], the IC50 in experiment [1] worked out at 4 nM; in experiment [2], 400 nM.

`Cc1c(C(=O)N2CCC(C#N)(c3ccccc3)CC2)cnn1-c1nc2ccsc2c(=O)[nH]1` [Q-0550]: the values for the IC50 in experiment [1] and in experiment [2] were 2 nM and 100 nM, respectively.

Take `Cc1c(C(=O)N2CCC3(CCCN3Cc3ccccc3)C2)cnn1-c1nc2c(c(=O)[nH]1)CCC2` (centres unmarked) [Q-0551]: the IC50 in experiment [1] turned out to be 6 nM; in experiment [2], 500 nM.

For `Cc1c(C(=O)N2CCC3(CCCCN3C(=O)OC(C)(C)C)C2)cnn1-c1nc2c(c(=O)[nH]1)CCC2` (centres unmarked) [Q-0552], the IC50 in experiment [1] came to 7 nM; in experiment [2], 38 nM.

With `CC(C)(C#N)C1CCN(C(=O)c2cnn(-c3nc4c(c(=O)[nH]3)CCC4)c2C2CC2)CC1` [Q-0553], the IC50 in experiment [1] came to 6 nM; in experiment [2], 200 nM.

For `O=C(c1ccnc(-c2nc3ccsc3c(=O)[nH]2)c1)N1CCC(c2c[nH]c3ccccc23)CC1` [Q-0555], the IC50 was determined as 20 nM in experiment [1] and 700 nM in experiment [2].

Take `Cc1c(C(=O)N2CCN3CCC[C@@H]3C2)cnn1-c1nc2ccsc2c(=O)[nH]1` [Q-0556]: the IC50 came to 7 nM in experiment [1] and 600 nM in experiment [2].

`Cc1c(C(=O)N2CCC3OCCCC3C2)cnn1-c1nc2ccsc2c(=O)[nH]1` (centres unmarked) [Q-0557]: the IC50 in experiment [1] turned out to be 8 nM; in experiment [2], 600 nM.

For the compound `O=C(O)c1ccnc(-c2nc3c(c(=O)[nH]2)CCC3)c1` [Q-0558], the IC50 worked out at 5000 nM in experiment [1] and 10000 nM in experiment [2].

In the case of `Cc1c(C(=O)N2CCC(c3nc4ccccc4s3)CC2)cnn1-c1nc2ccsc2c(=O)[nH]1` [Q-0559], the IC50 was 7 nM in experiment [1] and 38 nM in experiment [2].

Regarding `Cc1c(C(=O)N2CCC(c3c[nH]c4ccccc34)CC2)cnn1-c1nc2ccsc2c(=O)[nH]1` [Q-0560], the IC50 amounted to 3 nM in experiment [1] and 12 nM in experiment [2].

With `Cc1c(C(=O)N2CCC(C#N)(c3ccccc3)CC2)cnn1-c1nc2sccc2c(=O)[nH]1` [Q-0561], the figures for the IC50 in experiment [1] and in experiment [2] were 4 nM and 11 nM, respectively.

Take `CCC1(C#N)CCN(C(=O)c2cnn(-c3nc4ccsc4c(=O)[nH]3)c2C)CC1` [Q-0562]: the IC50 is 4 nM in experiment [1] and 200 nM in experiment [2].

In the case of `CCC1(C#N)CCN(C(=O)c2cnn(-c3nc4sccc4c(=O)[nH]3)c2C)CC1` [Q-0563], the IC50 came out at 5 nM in experiment [1] and 300 nM in experiment [2].

For `Cc1c(C(=O)N2CCC(C(F)(F)F)CC2)ccnc1-c1nc2ccsc2c(=O)[nH]1` [Q-0564], the values for the IC50 in experiment [1] and in experiment [2] were 200 nM and 4000 nM, respectively.

Take `Cc1c(C(=O)N2CCC(c3c[nH]c4cc(F)ccc34)CC2)cnn1-c1nc2c(c(=O)[nH]1)CCC2` [Q-0565]: the IC50 amounted to 6 nM in experiment [1] and 11 nM in experiment [2].

For the compound `O=C(O)c1ccnc(-c2nc3sccc3c(=O)[nH]2)c1` [Q-0566], the figures for the IC50 in experiment [1] and in experiment [2] were 5000 nM and 10000 nM, respectively.

For the compound `Cc1c(C(=O)N2CCN(c3ccc(F)cc3F)CC2)cnn1-c1nc2c(c(=O)[nH]1)CCC2` [Q-0567], the IC50 in experiment [1] was 3 nM; in experiment [2] it was 20 nM.

Consider `Cc1c(C(=O)N2CC(CNC(=O)OC(C)(C)C)C2)cnn1-c1nc2c(c(=O)[nH]1)CCC2` [Q-0568], for which the IC50 turned out to be 6 nM in experiment [1] and 200 nM in experiment [2].

As for `Cc1c(C(=O)N2CC3COCC(C3)C2)cnn1-c1nc2c(c(=O)[nH]1)CCC2` [Q-0569], the IC50 in experiment [1] amounted to 10 nM; in experiment [2], 300 nM.

Turning to `Cc1c(C(=O)N2CCN(c3ccccc3Cl)CC2)cnn1-c1nc2c(c(=O)[nH]1)CCC2` [Q-0570], the IC50 came out at 3 nM in experiment [1] and 23 nM in experiment [2].

As to `Cc1c(C(=O)N2CCC(c3c[nH]c4ccccc34)CC2)cnn1-c1nc2sccc2c(=O)[nH]1` [Q-0573], the IC50 is 3 nM in experiment [1] and 35 nM in experiment [2].

Take `Cc1c(C(=O)N2CCC(c3nc4ccccc4s3)CC2)cnn1-c1nc2sccc2c(=O)[nH]1` [Q-0574]: the IC50 came to 6 nM in experiment [1] and 47 nM in experiment [2].

Consider `Cc1c(C(=O)N2CCN3CCC[C@@H]3C2)cnn1-c1nc2c(c(=O)[nH]1)CCC2` [Q-0575], for which the results for the IC50 in experiment [1] and in experiment [2] were 3 nM and 200 nM, respectively.

Take `Cc1c(C(=O)N2CCC3OCCCC3C2)cnn1-c1nc2c(c(=O)[nH]1)CCC2` (centres unmarked) [Q-0576]: the IC50 in experiment [1] is 6 nM; in experiment [2] it was 100 nM.

As to `Cc1c(C(=O)N2CCC3(CCCCN3)C2)cnn1-c1nc2c(c(=O)[nH]1)CCC2` (centres unmarked) [Q-0577, 2-(5-methyl-4-(2,6-diazaspiro[4.5]decane-2-carbonyl)-1H-pyrazol-1-yl)-6,7-dihydro-3H-cyclopenta[d]pyrimidin-4(5H)-one], the IC50 in experiment [1] worked out at 40 nM; in experiment [2], 2100 nM.

As for `CC(C#N)C1CCN(C(=O)c2cnn(-c3nc4c(c(=O)[nH]3)CCC4)c2C2CC2)CC1` (centres unmarked) [Q-0578], the figures for the IC50 in experiment [1] and in experiment [2] were 8 nM and 700 nM, respectively.

On to `Cc1c(C(=O)N2CCC3(CCCCN3C(=O)OC(C)(C)C)C2)cnn1-c1nc2ccsc2c(=O)[nH]1` (centres unmarked) [Q-0579], for which the IC50 in experiment [1] turned out to be 5 nM; in experiment [2], 100 nM.

As for `Cc1c(C(=O)N2CCC(C(C)(C)C)CC2)cnn1-c1nc2c(c(=O)[nH]1)CCC2` [Q-0580], the IC50 in experiment [1] worked out at 3 nM; in experiment [2], 22 nM.

For `Cc1c(C(=O)N2CC(CNC(=O)OC(C)(C)C)C2)cnn1-c1nc2ccsc2c(=O)[nH]1` [Q-0582], the IC50 in experiment [1] stood at 20 nM; in experiment [2] it was 1000 nM.

Turning to `Cc1c(C(=O)N2CC(CN)C2)cnn1-c1nc2ccsc2c(=O)[nH]1` [Q-0583], the IC50 in experiment [1] came to 100 nM; in experiment [2] it was 3700 nM.

In the case of `CN[C@@H]1CCN(C(=O)c2cnn(-c3nc4ccsc4c(=O)[nH]3)c2C)C1` [Q-0584], the IC50 in experiment [1] was found to be 200 nM; in experiment [2] it was 10000 nM.

Turning to `Cc1c(C(=O)N2CCC(c3c[nH]c4ccccc34)CC2)cnn1-c1nn2cccc2c(=O)[nH]1` [Q-0585], the IC50 in experiment [1] stood at 6 nM; in experiment [2], 33 nM.

Consider `Cc1c(C(=O)N2CCC(c3nc4cc(F)ccc4s3)CC2)cnn1-c1nc2c(c(=O)[nH]1)CCC2` [Q-0587], for which the IC50 in experiment [1] came to 10 nM; in experiment [2] it was 21 nM.

Turning to `CN[C@@H]1CCN(C(=O)c2cnn(-c3nc4c(c(=O)[nH]3)CCC4)c2C)C1` [Q-0588], the IC50 in experiment [1] was determined as 70 nM; in experiment [2], 4700 nM.

Regarding `Cc1c(C(=O)N2CC(CN)C2)cnn1-c1nc2c(c(=O)[nH]1)CCC2` [Q-0589], the results for the IC50 in experiment [1] and in experiment [2] were 60 nM and 1700 nM, respectively.

Take `Cc1c(C(=O)N2CCC(c3nc4ccc(F)cc4s3)CC2)cnn1-c1nc2c(c(=O)[nH]1)CCC2` [Q-0590]: the IC50 in experiment [1] was 3 nM; in experiment [2], 15 nM.

With `Cc1c(C(=O)N2CCC(c3cn(C)c4ccccc34)CC2)cnn1-c1nc2c(c(=O)[nH]1)CCC2` [Q-0592], the IC50 in experiment [1] came out at 20 nM; in experiment [2], 76 nM.

With `O=C(c1cccc(-c2nc3c(c(=O)[nH]2)CCC3)c1)N1CCC(C(F)(F)F)CC1` [Q-0593, 2-(3-(4-(trifluoromethyl)piperidine-1-carbonyl)phenyl)-6,7-dihydro-3H-cyclopenta[d]pyrimidin-4(5H)-one], the IC50 in experiment [1] stood at 200 nM; in experiment [2], 7400 nM.

Turning to `Cc1c(C(=O)N2CCC(c3c[nH]c4ccccc34)CC2)ccnc1-c1nc2ccsc2c(=O)[nH]1` [Q-0594], the IC50 in experiment [1] turned out to be 300 nM; in experiment [2], 3600 nM.

`Cc1c(C(=O)N2CCC3(CCCCN3)C2)cnn1-c1nc2ccsc2c(=O)[nH]1` (centres unmarked) [Q-0595]: the IC50 in experiment [1] amounted to 70 nM; in experiment [2], 4400 nM.

Broadly, the IC50 is the midpoint of a concentration-inhibition curve.
